{"source": "paper PMC5574609", "about": "“Potential role of an antimicrobial peptide, KLK in inhibiting lipopolysaccharide-induced macrophage inflammation” (PLoS ONE, 2017)", "type_in_all_cases": "cell-based, murine", "key": {"[1]": {"system": "TNF-α production in LPS-stimulated RAW 264.7 cells", "assay": "TNF-α production, sandwich ELISA", "details": "LPS 1 µg/mL, 72 h, mean ± SD", "procedure": "(§1) The pro-inflammatory cytokines (IL-1β and TNF-α)were determined by sandwich enzyme-linked immunosorbent assay (ELISA). RAW 264.7 cells (1×10^5 cells/well) were seeded into a 96-well microtiter plate (Nunc™) and stimulated with LPS (1 μg/mL; Sigma) in the presence or absence of each peptide at different concentrations. After 72 h of incubation, the culture supernatant was collected and cytokine concentrations measured using ELISA MAX™ Deluxe Set (BioLegend, San Diego, CA, USA), following the manufacturer’s protocol."}, "[2]": {"system": "NO production in LPS-stimulated RAW 264.7 cells", "assay": "LPS-stimulated NO production (nitrite, Griess)", "details": "peptide 1 µg/mL, LPS 1 µg/mL, 48 h, mean ± SD", "procedure": "(§2) RAW 264.7 cells at 1×10^5 cells/well were stimulated with 1 μg/mL LPS (Escherichia coli 0111:B4; Sigma, St. Louis, MO, USA) in the presence or absence of various concentrations of the test peptide and then incubated at 37°C in 5% CO2 for 48 h. Indomethacin (10 μM; Sigma, St. Louis, MO, USA) was included as a positive control. Where appropriate, cells were pre-incubated with the test peptide for 1 h, and washed three times with sterile PBS before incubation with LPS (1 μg/mL; Sigma). Culture supernatant was collected and the nitrite (a stable breakdown product of NO) accumulated in culture supernatant was then determined by the Griess reagent system (Promega, Madison, USA). Briefly, 50 μL of culture supernatant was mixed with an equal volume of 1% sulfanilamide in 5% phosphoric acid. After incubation for 10 min at room temperature, 50 μL of 0.1% N-1-napthylethylenediamine dihydrochloride was added and incubated for another 10 min at room temperature. The absorbance was measured at 540 nm using a microplate reader (Rayto RT-2100C, China) and nitrite concentrations were determined using a sodium nitrite standard curve. The PGE2 levels in culture medium were quantified by enzyme-immunoassay (R&D Systems, Minneapolis, MN, USA) according to the manufacturer’s instructions."}, "[3]": {"system": "PGE2 production in LPS-stimulated RAW 264.7 cells", "assay": "PGE2 production, enzyme-immunoassay", "details": "LPS 1 µg/mL + indomethacin 10 µM, 48 h", "procedure": "as §2, with “Sigma,” for “RAW 264.7 cells at 1×10^5 cells/well were stimulated with 1 μg/mL LPS (Escherichia coli 0111:B4; Sigma,”, “Where appropriate, cells were pre-incubated with the test peptide for 1 h, and washed three times with sterile PBS before incubation with LPS (1 μg/mL;” left out, “After incubation for 10 min at room temperature, 50 μL of 0.1% N-1-napthylethylenediamine dihydrochloride was added and incubated for another 10 min at room temperature.” left out"}, "[4]": {"system": "NO production in LPS-stimulated RAW 264.7 cells", "assay": "Pre-treatment with or without wash, then LPS; NO by Griess", "details": "10 µg/mL pre-treatment 1 h, washed, LPS 1 µg/mL 48 h", "procedure": "as §2, with “Briefly, 50 μL of culture supernatant was mixed with an equal volume of 1% sulfanilamide in 5% phosphoric acid. After incubation for 10 min at room temperature, 50 μL of 0.1% N-1-napthylethylenediamine dihydrochloride was added and incubated for another 10 min at room temperature.” left out\nTo investigate whether the ability of KLK peptide to inhibit LPS-induced signaling was due to KLK-LPS binding, experiments were performed in which RAW 264.7 cells were pre-treated with the KLK peptide for 1 h and then thoroughly washed to remove exogenous peptide. The cells were subsequently stimulated with LPS and pro-inflammatory mediator (NO) measured in cell-free supernatant after 48 hr. […]"}, "[5]": {"system": "IL-1β production in LPS-stimulated RAW 264.7 cells", "assay": "IL-1β production, sandwich ELISA", "details": "LPS 1 µg/mL, 72 h, mean ± SD", "procedure": "as §1"}}, "note": "Bridge positions count the residues as written; N and C are the ends. Ends that are not written are not given here. Peptide text beside a SMILES is read from it."}
{"molecule": "CKLKLLLLLKLKC (disulfide 1-13 (inferred)) [SSKLK, KLK with cysteine residues added to both N and C-terminal ends]", "values": [{"measurement": "IC50 for TNF-α production", "setting": "[1]", "result": "1.79 ± 0.01", "unit": "µg/mL"}, {"measurement": "inhibitory rate of LPS-stimulated NO production", "setting": "[2]", "result": "70.77 ± 1.55", "unit": "%"}]}
{"molecule": "COc1ccc2c(c1)c(CC(=O)O)c(C)n2C(=O)c1ccc(Cl)cc1", "note": "[Indomethacin]", "values": [{"measurement": "PGE2", "setting": "[3]; exp. 1", "result": 783.5, "unit": "pg/mL"}, {"measurement": "PGE2", "setting": "[3]; exp. 2", "result": 716, "unit": "pg/mL"}, {"measurement": "PGE2", "setting": "[3]; mean of n = 2", "result": 749.7, "unit": "pg/mL"}]}
{"molecule": "polymyxin B [PMB]", "values": [{"measurement": "effect of removing exogenous compound by washing before LPS on NO inhibition", "setting": "[4]", "result": "significantly affected"}]}
{"molecule": "CC(C)C[C@@H]1NC(=O)[C@H](CCCCN)NC(=O)[C@H](CC(C)C)NC(=O)[C@H](CC(C)C)NC(=O)[C@H](CC(C)C)NC(=O)[C@H](CC(C)C)NC(=O)[C@H](CC(C)C)NC(=O)[C@H](CCCCN)NC(=O)[C@H](CC(C)C)NC(=O)[C@H](CCCCN)NC(=O)[C@H](CCCCN)NC1=O", "note": "[CYCKLK] (HELM PEPTIDE1{K.L.K.L.L.L.L.L.K.L.K}$PEPTIDE1,PEPTIDE1,1:R1-11:R2$$$V2.0)", "values": [{"measurement": "IC50 for TNF-α production", "setting": "[1]", "result": "0.91 ± 0.07", "unit": "µg/mL"}, {"measurement": "IC50 for IL-1β production", "setting": "[5]", "result": "8.83 ± 1.31", "unit": "µg/mL"}, {"measurement": "inhibitory rate of LPS-stimulated NO production", "setting": "[2]", "result": "79.26 ± 3.17", "unit": "%"}]}
